Measured values taken from patent publication US7514469B2, “Formulation of a mixture of Free-B-ring flavonoids and flavans as a therapeutic agent” (Unigen Pharmaceuticals, Inc., priority 2002, dated 2009).
Where two headings read alike, the source gives them in different places. Each block holds one compound with its values, some of them ahead of it.

How the values were obtained:
Ovine COX-1 [1] = biological target: T1, Ovine COX-1 (Ovis aries, UniProt P05979); assay: COX-1 peroxidase assay (Example 2 method); type: biochemical; details: read-out: Inhibition of COX-1
T1 sequence (P05979 25-600): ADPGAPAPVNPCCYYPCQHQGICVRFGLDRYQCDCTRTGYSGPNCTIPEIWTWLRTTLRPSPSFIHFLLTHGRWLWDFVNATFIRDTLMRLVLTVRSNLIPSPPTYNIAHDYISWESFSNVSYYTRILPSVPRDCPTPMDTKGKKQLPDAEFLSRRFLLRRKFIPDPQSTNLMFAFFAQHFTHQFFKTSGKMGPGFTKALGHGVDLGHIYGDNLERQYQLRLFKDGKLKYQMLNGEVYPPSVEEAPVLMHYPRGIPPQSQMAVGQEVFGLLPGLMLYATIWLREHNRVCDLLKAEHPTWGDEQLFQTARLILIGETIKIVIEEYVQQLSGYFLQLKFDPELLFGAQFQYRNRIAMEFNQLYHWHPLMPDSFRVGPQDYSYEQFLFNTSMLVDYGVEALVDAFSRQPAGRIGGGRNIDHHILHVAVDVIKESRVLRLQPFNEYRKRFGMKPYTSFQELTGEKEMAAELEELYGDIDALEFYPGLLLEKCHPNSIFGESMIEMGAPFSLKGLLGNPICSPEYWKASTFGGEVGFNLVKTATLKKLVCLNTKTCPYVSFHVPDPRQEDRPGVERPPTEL
From the text: (§1) Peroxidase Assay. The assay to detect inhibitors of COX-2 was modified for a high throughput platform (Raz). […] Luminescence was then read using a Wallac Victor 2 plate reader.
Comparison of the relative inhibition of the COX-1 and COX-2 isoforms requires the generation of IC50 values for each of these enzymes. […] Examination of the HTP fractions and purified compounds from these fractions is necessary to determine the true specificity of inhibition for these extracts and compounds.

recombinant ovine COX-2 [2] = biological target: T2, recombinant ovine COX-2 (Ovis aries, UniProt P79208); assay: COX-2 peroxidase assay, high throughput (Example 2); type: biochemical; details: 20 μg/mL
T2 construct: purchased Cayman
T2 sequence (P79208 17-603): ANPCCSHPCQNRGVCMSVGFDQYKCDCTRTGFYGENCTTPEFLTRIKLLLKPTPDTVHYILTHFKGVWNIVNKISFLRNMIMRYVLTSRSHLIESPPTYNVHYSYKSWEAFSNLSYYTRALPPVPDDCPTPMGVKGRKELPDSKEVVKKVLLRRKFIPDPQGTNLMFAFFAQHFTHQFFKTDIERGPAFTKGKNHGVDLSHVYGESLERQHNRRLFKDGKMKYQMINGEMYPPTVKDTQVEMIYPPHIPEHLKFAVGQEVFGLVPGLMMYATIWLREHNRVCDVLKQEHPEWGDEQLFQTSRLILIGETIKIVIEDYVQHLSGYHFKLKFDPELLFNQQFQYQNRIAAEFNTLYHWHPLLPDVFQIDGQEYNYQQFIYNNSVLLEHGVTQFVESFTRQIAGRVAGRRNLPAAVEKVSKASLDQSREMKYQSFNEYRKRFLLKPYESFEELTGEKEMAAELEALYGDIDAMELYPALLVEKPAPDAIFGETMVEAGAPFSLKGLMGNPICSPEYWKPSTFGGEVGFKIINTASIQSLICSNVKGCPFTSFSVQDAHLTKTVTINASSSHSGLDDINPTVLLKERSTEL
From the text: as §1, with “reader. […] Data is presented as the percent of peroxidase activity relative to the recombinant ovine COX-2 enzyme and substrate alone.” for “reader.”

COX-1 = details: cited from earlier work
colorectal cancer = details: in vivo; cited from earlier work
[3] = system: subjects with rheumatoid arthritis or osteoarthritis of the knee and/or hip; assay: Clinical study, WOMAC Osteo-Arthritis Index; type: in vivo, human; details: 200 mg/day; vs baseline; completers only
From the text: This clinical study was a single-center, randomized, double-blind, placebo-controlled study. Sixty subjects (n=60) with rheumatoid arthritis or osteoarthritis of the knee and/or hip were randomly placed into one of the following four groups:
Subjects were sex-matched and recruited from ages 40 to 75. […] Subjects taking NSAIDs engaged in a two-week washout period before beginning the study. Physical activity was not restricted, nor were the subjects given any advice as to diet. Subjects were free to withdraw from the trial at any time for any reason. The efficacy of the treatments was evaluated at 30, 60 and 90 days of oral administration by physicians, using the Western Ontario and McMaster Universities (WOMAC) Osteo-Arthritis Index (See Lingard et al. (2001) J. Bone & Joint Surg. 83:1856-1864; Soderman and Malchau (2000) Acta Orthop. Scand. 71(1):39-46). This protocol was reviewed and approved by an IRB board from University of Montreal.
The WOMAC was administered to subjects preferably in the doctor's office. They were asked to read and respond to a questionnaire on their own or via proxy in the waiting room of the doctor's office or were interviewed by project personnel over the telephone and the data were transcribed in the computer database. This offered a stable environment among patients and reduced the possibility of bias due to different home environments among patients. Between groups differences for all measurements were evaluated with One-Way Analysis of Variance and Tukey's Least Significant Difference for multiple comparisons. All questions were assigned a weight from 0 to 4 depending on the severity of pain, stiffness or impaired function. These values were then converted to percentages normalized to 100 and reported as WOMAC scores. Higher values are indicative of greater impairment. […] The lower the score, the less pain and stiffness and better function a patient has.

[4] = Clinical study, weight and BMI; type: in vivo, human; details: 200 mg/day
Procedure: Additional measurements taken during the clinical trial were height and weight. All subjects in all groups (see Example 20) were measured for height and weight at 30 and 90 days of treatment. The subjects were given no recommendations on diet or exercise in order not to bias the results toward reduction of BMI and weight loss. Table 14 illustrates the changes in weight and BMI that occurred after treatment for 30 and 90 days.

mouse = details: oral, 100 mg/kg; cited from earlier work
[5] = system: LTB4 synthesis (5-LO pathway) in HT-29 cells; assay: LTB4 ELISA in HT-29 cells; type: cell-based; details: 3 μg/mL, 48 hrs; Univestin ratio 80:20
Procedure: A competitive ELISA for LTB4 (LTB4; Neogen, Inc., Cat #4061 10) was used to assess the effect of Univestin™ on newly synthesized levels of LTB4 present in each cell line as a measure of Univestin™'s inhibitory effect on the 5-LO pathway. The assay was performed in duplicate by adding 160,000 to 180,000 cells per well in 6-well plates. […] Each treated cell line was then harvested by centrifugation and disrupted by gentle dounce homogenization lysis in physiological buffers.

recombinant ovine COX-2 [6] = biological target: T2, recombinant ovine COX-2; assay: COX-2 peroxidase activity IC50 assay with TMPD (Example 6); type: biochemical
Procedure: (§2) A cleavable, peroxide chromophore was included in the assay to visualize the peroxidase activity of each enzyme in the presence of arachidonic acid as a cofactor. Typically, the assays were performed in a 96-well format. Each inhibitor, taken from a 10 mg/mL stock in 100% DMSO, was tested in triplicate at room temperature using the following range of concentrations: 0, 0.1, 1, 5, 10, 20, 50, 100, and 500 μg/mL. […] The components were mixed for 10 seconds on a rotating platform, after which 20 μL of 2 mM N,N,N′N′-Tetramethyl-p-phenylenediamine dihydrochloride (TMPD) and 20 μL of 1.1 mM AA was added to initiate the reaction. The plate was shaken for 10 seconds and then incubated for 5 minutes before reading the absorbance at 570 nm. The inhibitor concentration vs. percentage inhibition was plotted and the IC50 determined by taking the half-maximal point along the isotherm and intersecting the concentration on the x-axis. The IC50 was then normalized to the number of enzyme units in the assay.

potato 5-lipoxygenase = assay: Lipoxygenase Inhibitor Screening Assay with potato 5-LO; type: biochemical
From the text: As noted above, one of the most important pathways involved in the inflammatory response is produced by non-heme, iron-containing lipoxygenases (5-LO, 12-LO, and 15-LO), which catalyze the addition of molecular oxygen onto fatty acids such as AA (AA) to produce the hydroperoxides 5-, 12- and 15-HPETE, which are then converted to leukotrienes. There were early indications that the flavan extract from A. catechu may provide some degree of 5-LO inhibition, thereby preventing the formation of 5-HPETE. […] The 15-LO from soybeans normally used in the kit was replaced with potato 5-LO, after a buffer change from phosphate to a tris-based buffer using microfiltration was performed. This assay detects the formation of hydroperoxides through an oxygen sensing chromagen.

Ovine COX-1 [7] = biological target: T1, Ovine COX-1; assay: COX-1 peroxidase activity IC50 assay with TMPD (Example 6); type: biochemical
Procedure: as §2

inhibition at 20 µg/mL (Ovine COX-1 [1]; 20 μg/mL): 75%
inhibition at 20 µg/mL (recombinant ovine COX-2 [2]): 59%
SMILES: COc1cc2oc(-c3ccccc3)cc(=O)c2c(O)c1O [5,6-Dihydroxy-7-methoxyflavone]

inhibition at 20 µg/mL (Ovine COX-1 [1]; 20 μg/mL): 74%
inhibition at 20 µg/mL (recombinant ovine COX-2 [2]): 63%
SMILES: O=c1cc(-c2ccccc2)oc2c(O)c(O)ccc12 [7,8-Dihydroxyflavone]

SMILES: Oc1cc(O)c2c(c1)O[C@H](c1ccc(O)c(O)c1)[C@@H](O)C2 [(+)-Catechin]
IC50 (COX-1; isolated from natural source): 80 µM

SMILES: CC(=O)Oc1ccccc1C(=O)O [Aspirin]
Reduction of colorectal cancer mortality (colorectal cancer): 50%
Reduction of incidence of colorectal cancer (colorectal cancer): 40-50%

SMILES: Cc1ccc(-c2cc(C(F)(F)F)nn2-c2ccc(S(N)(=O)=O)cc2)cc1 [Celecoxib]
Mean absolute change in WOMAC score Function-30 days [3]: −0.37
Mean absolute change in WOMAC score Function-60 days [3]: −6.97
Mean absolute change in WOMAC score Function-90 days [3]: −2.78
Mean absolute change in WOMAC score Pain-30 days [3]: −4.23
Mean absolute change in WOMAC score Pain-60 days [3]: −22.31
Mean absolute change in WOMAC score Pain-90 days [3]: −16.67
Mean absolute change in WOMAC score Stiffness-30 days [3]: −8.65
Mean absolute change in WOMAC score Stiffness-60 days [3]: −9.62
Mean absolute change in WOMAC score Stiffness-90 days [3]: −13.54
Change in mean BMI, 30 days [4]: −.68 kg/m^2
Change in mean BMI, 90 days [4]: −1.07 kg/m^2
Change in mean weight, 30 days [4]: -2.00 kg
Change in mean weight, 90 days [4]: -3.17 kg

SMILES: Oc1ccc([C@H]2Oc3cc(O)cc(O)c3C[C@H]2O)cc1 [Epiafzelechin]
Anti-inflammatory activity, carrageenin-induced mouse paw edema (mouse): demonstrated anti-inflammatory activity
IC50 (COX-1; isolated from Celastrus orbiculatus): 15 µM

SMILES: CC(C)Cc1ccc(C(C)C(=O)O)cc1 (centres unmarked) [Ibuprofen]
Reduction of newly synthesized LTB4 [5]: 20%

SMILES: COc1c(O)cc(O)c2c(=O)cc(-c3ccccc3)oc12 [Wogonin]
inhibition at 20 µg/mL (Ovine COX-1 [1]): 16%

inhibition at 20 µg/mL (Ovine COX-1 [1]; 20 μg/mL): 107%
SMILES: O=c1cc(-c2ccccc2)oc2cc(O)c(O)c(O)c12 [baicalein]

inhibition at 20 µg/mL (Ovine COX-1 [1]; 20 μg/mL): 95%
inhibition at 20 µg/mL (recombinant ovine COX-2 [2]): 97%
SMILES: O=C(O)[C@H]1O[C@@H](Oc2cc3oc(-c4ccccc4)cc(=O)c3c(O)c2O)[C@H](O)[C@@H](O)[C@@H]1O [baicalin]

IC50 for COX-2 (recombinant ovine COX-2 [6]; normalized to enzyme units): 0.42 μg/mL/unit
IC50 for 5-LO (potato 5-lipoxygenase): 1.38 μg/mL/unit of enzyme
IC50 for COX-1 (Ovine COX-1 [7]; normalized to enzyme units): 0.11 μg/mL/unit of enzyme
SMILES: Oc1cc(O)c2c(c1)OC(c1ccc(O)c(O)c1)C(O)C2 (centres unmarked) [catechin]

IC50 (recombinant ovine COX-2 [6]): 68.9 µM
IC50 (Ovine COX-1 [7]): 24.1 µM
SMILES: Oc1cc(O)c2c(c1)O[C@H](c1ccc(O)c(O)c1)[C@H](O)C2 [epicatechin]
